Assay results as given in patent EP4635500A1, “THERAPEUTIC AGENT FOR BACTERIAL INFECTION” (Sumitomo Pharma Co., Ltd., priority 2022, dated 2024).
Converted amounts (≈) assume the structure as drawn. Where two headings read alike, the source gives them in different places.

Assays:
[1] = system: carbapenemase-producing Enterobacteriaceae (CPE); assay: MIC in human urine and CAMHB at pH 5.0 to 8.0 (Example 13, Tables 29, 30); settings: Klebsiella pneumoniae
[2] = cited from earlier work
[3] = system: E. coli ATCCBAA-2469 producing NDM-1; assay: Systemic infection lethal mouse model, ED50 (Example 14, Table 32); settings: 7 days after infection
Description: The test strains on the agar medium were suspended in saline and adjusted to a Klett unit of about 200 using a Klett Photoelectric Colorimeter. […] Male ICR mice were inoculated intraperitoneally with 0.2 mL of the bacterial suspension. Two hours after the inoculation, saline or a solution for administering the agent at each concentration was administered subcutaneously to the mice in a single dose. The number of mice that survived from Day 1 to Day 7 after infection was recorded.

Escherichia coli = assay: MIC and MBC, broth microdilution (Example 4, Table 3); assay type: cell-based; settings: for MBC: read-out: MBC; for MIC: read-out: MIC
A. baumannii = assay: MIC, Gram-negative bacteria clinically isolated in the United States (Example 8, Table 16); assay type: cell-based; settings: Acinetobacter baumannii; A. baumannii (80 strains) isolated in the United States; Compound A µg/mL in parentheses
Klebsiella pneumoniae = assay: as above; assay type: cell-based; settings: K. pneumoniae (80 strains) isolated in the United States, Compound A µg/mL in parentheses
[4] = ATCCBAA2340, Escherichia coli ATCC BAA-2340 (KPC-3)
[5] = ATCCBAA2469, Escherichia coli ATCC BAA-2469 (NDM-1)
[6] = Escherichia coli NCTC13476 (IMP-1)

**Q.** What does the source list for `C[C@@H](O)[C@H]1C(=O)N2C(C(=O)O)=C(S[C@@H]3CN[C@H](C(=O)N(C)C)C3)[C@H](C)[C@H]12` [MEPM, meropenem]?
**A.** MIC ([1]; ATCCBAA2342, pH 6, read-out: MICs of MEPM, K. pneumoniae ATCC BAA-2342 (KPC-3), CAMHB pH6.0): 16 µg/mL (≈ 41.7 µM); MIC ([1]; ATCCBAA2342, pH 6, read-out: MICs of MEPM, K. pneumoniae ATCC BAA-2342 (KPC-3), Human urine pH6.0): 8 µg/mL (≈ 20.9 µM); MIC ([1]; ATCCBAA2342, pH 7, read-out: MICs of MEPM, K. pneumoniae ATCC BAA-2342 (KPC-3), Human urine pH7.0): 16 µg/mL (≈ 41.7 µM); MIC ([1]; ATCCBAA2342, pH 7.2, read-out: MICs of MEPM, K. pneumoniae ATCC BAA-2342 (KPC-3), Standard condition (CAMHB pH7.2)): 16 µg/mL (≈ 41.7 µM); MIC ([1]; ATCCBAA2342, pH 8, read-out: MICs of MEPM, K. pneumoniae ATCC BAA-2342 (KPC-3), CAMHB pH8.0): 16 µg/mL (≈ 41.7 µM); MIC ([1]; ATCCBAA2342, pH 8, read-out: MICs of MEPM, K. pneumoniae ATCC BAA-2342 (KPC-3), Human urine pH8.0): 32 µg/mL (≈ 83.4 µM); MIC ([1]; ATCCBAA2344, pH 5, read-out: MICs of MEPM, K. pneumoniae ATCC BAA-2344 (KPC-2), CAMHB pH5.0): 8 µg/mL (≈ 20.9 µM); MIC ([1]; ATCCBAA2344, pH 5, read-out: MICs of MEPM, K. pneumoniae ATCC BAA-2344 (KPC-2), Human urine pH5.0): 2 µg/mL (≈ 5.22 µM); MIC ([1]; ATCCBAA2344, pH 6, read-out: MICs of MEPM, K. pneumoniae ATCC BAA-2344 (KPC-2), CAMHB pH6.0): 32 µg/mL (≈ 83.4 µM); MIC ([1]; ATCCBAA2344, pH 6, read-out: MICs of MEPM, K. pneumoniae ATCC BAA-2344 (KPC-2), Human urine pH6.0): 8 µg/mL (≈ 20.9 µM); MIC ([1]; ATCCBAA2344, pH 7, read-out: MICs of MEPM, K. pneumoniae ATCC BAA-2344 (KPC-2), Human urine pH7.0): 32 µg/mL (≈ 83.4 µM); MIC ([1]; ATCCBAA2344, pH 7.2, read-out: MICs of MEPM, K. pneumoniae ATCC BAA-2344 (KPC-2), Standard condition (CAMHB pH7.2)): 32 µg/mL (≈ 83.4 µM); MIC ([1]; ATCCBAA2344, pH 8, read-out: MICs of MEPM, K. pneumoniae ATCC BAA-2344 (KPC-2), CAMHB pH8.0): 32 µg/mL (≈ 83.4 µM); MIC ([1]; ATCCBAA2344, pH 8, read-out: MICs of MEPM, K. pneumoniae ATCC BAA-2344 (KPC-2), Human urine pH8.0): 32 µg/mL (≈ 83.4 µM); MIC ([1]; ATCCBAA2470, pH 5, read-out: MICs of MEPM, K. pneumoniae ATCC BAA-2470 (NDM-1), CAMHB pH5.0): 0.12 µg/mL (≈ 0.313 µM); MIC ([1]; ATCCBAA2470, pH 5, read-out: MICs of MEPM, K. pneumoniae ATCC BAA-2470 (NDM-1), Human urine pH5.0): 0.12 µg/mL (≈ 0.313 µM); MIC ([1]; ATCCBAA2470, pH 6, read-out: MICs of MEPM, K. pneumoniae ATCC BAA-2470 (NDM-1), CAMHB pH6.0): 8 µg/mL (≈ 20.9 µM); MIC ([1]; ATCCBAA2470, pH 6, read-out: MICs of MEPM, K. pneumoniae ATCC BAA-2470 (NDM-1), Human urine pH6.0): 0.12 µg/mL (≈ 0.313 µM); MIC ([1]; ATCCBAA2470, pH 7, read-out: MICs of MEPM, K. pneumoniae ATCC BAA-2470 (NDM-1), Human urine pH7.0): 16 µg/mL (≈ 41.7 µM); MIC ([1]; ATCCBAA2470, pH 7.2, read-out: MICs of MEPM, K. pneumoniae ATCC BAA-2470 (NDM-1), Standard condition (CAMHB pH7.2)): 16 µg/mL (≈ 41.7 µM); MIC ([1]; ATCCBAA2470, pH 8, read-out: MICs of MEPM, K. pneumoniae ATCC BAA-2470 (NDM-1), CAMHB pH8.0): 64 µg/mL (≈ 167 µM); MIC ([1]; ATCCBAA2470, pH 8, read-out: MICs of MEPM, K. pneumoniae ATCC BAA-2470 (NDM-1), Human urine pH8.0): 8 µg/mL (≈ 20.9 µM); MIC ([1]; ATCCBAA2524, pH 5, read-out: MICs of MEPM, K. pneumoniae ATCC BAA-2524 (OXA-48), CAMHB pH5.0): 0.25 µg/mL (≈ 0.652 µM); MIC ([1]; ATCCBAA2524, pH 5, read-out: MICs of MEPM, K. pneumoniae ATCC BAA-2524 (OXA-48), Human urine pH5.0): 0.25 µg/mL (≈ 0.652 µM); MIC ([1]; ATCCBAA2524, pH 6, read-out: MICs of MEPM, K. pneumoniae ATCC BAA-2524 (OXA-48), CAMHB pH6.0): 0.25 µg/mL (≈ 0.652 µM); MIC ([1]; ATCCBAA2524, pH 6, read-out: MICs of MEPM, K. pneumoniae ATCC BAA-2524 (OXA-48), Human urine pH6.0): 0.25 µg/mL (≈ 0.652 µM); MIC ([1]; ATCCBAA2524, pH 7, read-out: MICs of MEPM, K. pneumoniae ATCC BAA-2524 (OXA-48), Human urine pH7.0): 0.25 µg/mL (≈ 0.652 µM); MIC ([1]; ATCCBAA2524, pH 7.2, read-out: MICs of MEPM, K. pneumoniae ATCC BAA-2524 (OXA-48), Standard condition (CAMHB pH7.2)): 1 µg/mL (≈ 2.61 µM); MIC ([1]; ATCCBAA2524, pH 8, read-out: MICs of MEPM, K. pneumoniae ATCC BAA-2524 (OXA-48), CAMHB pH8.0): 4 µg/mL (≈ 10.4 µM); MIC ([1]; ATCCBAA2524, pH 8, read-out: MICs of MEPM, K. pneumoniae ATCC BAA-2524 (OXA-48), Human urine pH8.0): 1 µg/mL (≈ 2.61 µM); MIC ([1]; NCTC13439, pH 5, read-out: MICs of MEPM, K. pneumoniae NCTC13439 (VIM-1), CAMHB pH5.0): 0.12 µg/mL (≈ 0.313 µM); MIC ([1]; NCTC13439, pH 5, read-out: MICs of MEPM, K. pneumoniae NCTC13439 (VIM-1), Human urine pH5.0): 0.12 µg/mL (≈ 0.313 µM); MIC ([1]; NCTC13439, pH 6, read-out: MICs of MEPM, K. pneumoniae NCTC13439 (VIM-1), CAMHB pH6.0): 1 µg/mL (≈ 2.61 µM); MIC ([1]; NCTC13439, pH 6, read-out: MICs of MEPM, K. pneumoniae NCTC13439 (VIM-1), Human urine pH6.0): 0.06 µg/mL (≈ 0.156 µM); MIC ([1]; NCTC13439, pH 7, read-out: MICs of MEPM, K. pneumoniae NCTC13439 (VIM-1), Human urine pH7.0): 2 µg/mL (≈ 5.22 µM); MIC ([1]; NCTC13439, pH 7.2, read-out: MICs of MEPM, K. pneumoniae NCTC13439 (VIM-1), Standard condition (CAMHB pH7.2)): 4 µg/mL (≈ 10.4 µM); MIC ([1]; NCTC13439, pH 8, read-out: MICs of MEPM, K. pneumoniae NCTC13439 (VIM-1), CAMHB pH8.0): 4 µg/mL (≈ 10.4 µM); MIC ([1]; NCTC13439, pH 8, read-out: MICs of MEPM, K. pneumoniae NCTC13439 (VIM-1), Human urine pH8.0): 1 µg/mL (≈ 2.61 µM); human protein binding rate ([2]; Reference 2): 2%; Cmax ([2]; human, 2 g intravenously for 3 hours every 8 hours, Reference 3): 46000 ng/mL; Survival rate ([3]; Dose 10 mg/kg): 10%; Survival rate ([3]; Dose 30 mg/kg): 0%; Survival rate ([3]; Dose 60 mg/kg): 0%; Survival rate ([3]; Dose 100 mg/kg): 80%; MBC (Escherichia coli; [4]): 8 µg/mL (≈ 20.9 µM); MIC (Escherichia coli; [4]): 4 µg/mL (≈ 10.4 µM); MBC (Escherichia coli; [5]): 32 µg/mL (≈ 83.4 µM); MIC (Escherichia coli; [5]): 32 µg/mL (≈ 83.4 µM); MBC (Escherichia coli; [6]): 8 µg/mL (≈ 20.9 µM); MIC (Escherichia coli; [6]): 4 µg/mL (≈ 10.4 µM); MIC50 (A. baumannii): 2 µg/mL (≈ 5.22 µM); MIC90 (A. baumannii): 64 µg/mL (≈ 167 µM); MIC50 (Klebsiella pneumoniae): ≤ 0.125 µg/mL; MIC90 (Klebsiella pneumoniae): 4 µg/mL (≈ 10.4 µM)
